# Patent US20140186261A1, “ANTI-TUMOR AGENT AND ANTI-TUMOR KIT” (NIHON MEDI-PHYSICS CO., LTD., priority 2012, published 2014)
# Read-outs that look alike come from different tables or passages of the source.
# Experiments:
# [1] = format: in vivo, BALB/c nude mice
# Description: 5-FU was repeatedly intraperitoneally administered to BALB/c nude mice (male, 7-week old, about 25 g in body weight, obtained from Japan SLC, Inc.) at 25 mg/kg, 50 mg/kg, or 100 mg/kg once a day for 4 days. Body weight was measured at the 5th day from the first starting day of administration and later to determine the rate of body weight reduction. The rate of body weight reduction was calculated based on the following equation.
# Body weight reduction rate(%)=[{(Body weight at day prior to the date of first 5-FU administration)−(Body weight measured after start of 5-FU administration)}/(Body weight at day prior to the date of first 5-FU administration)]×100
# Saline was administered to a control group in place of 5-FU.
# [2] = test system: Human large bowel cancer-derived HT29 cells; assay: Anti-tumor effect of 64Cu-ATSM and 5-FU in HT29 tumor-bearing mouse (tumor volume); format: in vivo, BALB/c nude mice; conditions: HT29 tumor-bearing mice; 5-FU 25 mg/kg i.p. once a day x4 days; 64Cu-ATSM 37 MBq (74 MBq in Comparative Example 3) via tail vein at final day; measured to day 15; 6 mice
# Description: (§1) Human large bowel cancer-derived HT29 cells were purchased from ATCC and proliferated for use. […] At the final day of 5-FU administration, 37 MBq (1 mCi) of ^64Cu-ATSM was administered through the tail vein.
# (§2) Cu-ATSM. The tumor size in mice was measured 2, 4, 8, 12, or 15 days after starting the administration of 5-FU. Cells obtained from the tumor removed at 2 days after the administration of ^64Cu-ATSM were subjected to the detection of apoptotic cells and CD133-positive (CD133+) cells using flow cytometry (Guava flow cytometry, from Millipore Corporation). The detection of apoptotic cells was performed using Annexin V (Mouse Anti-Human Annexin V FITC, AbD MCA2712F, from Serotec Co., Ltd.). The detection of CD133+cells was performed using an anti-CD133 antibody (CD133/1(A133)-PE, from Miltenyi Biotec K.K.).
# The experiment was carried out in the same way as Example 2 except for administering saline in place of ^64Cu-ATSM.
# The experiment was carried out in the same way as Example 2 except for administering saline in place of 5-FU.
# Saline was administered in place of 5-FU. The dose of ^64Cu-ATSM was 74 MBq (2 mCi). The experiment was carried out in the otherwise same way as Example 2.
# The volume of tumor was calculated from the size of tumor measured in Example 2 and Comparative Examples 1 to 3; the change thereof with time is shown in FIG. 1. […]
# [3] = test system: Human large bowel cancer-derived HT29 cells; assay: Detection of apoptotic cells in removed HT29 tumor by flow cytometry (Annexin V); format: in vivo, BALB/c nude mice; conditions: tumor removed 2 days after 64Cu-ATSM administration, 5-FU 25 mg/kg x4 days, 64Cu-ATSM 37 or 74 MBq, 6 mice
# Description: as §1, §2
# In FIG. 2, the results of percentages of apoptotic cells in the removed tumor are expressed in average and standard deviation for 6 mice.
# [4] = test system: CD133+ cells in HT29 tumor; format: in vivo, BALB/c nude mice; conditions: tumor removed 2 days after 64Cu-ATSM administration; 5-FU 25 mg/kg x4 days, 64Cu-ATSM 37 or 74 MBq; anti-CD133 flow cytometry; 6 mice
# Description: as §1, §2
# In FIG. 3, the results of percentages of CD133+cells in the removed tumor are expressed in average and standard deviation for 6 mice.
# HT29 cells [5] = assay: Anti-tumor effect of repeated administration of 64Cu-ATSM and 5-FU in HT29 tumor-bearing mouse (tumor volume); format: in vivo, BALB/c nude mice; conditions: HT29 tumor-bearing mice; two cycles (start day 1 and 25th day) of 5-FU 25 mg/kg i.p. x4 days and 64Cu-ATSM 37 MBq at final day; to day 34; 6 mice
# Description: The HT29 tumor-bearing model was prepared in the same way as Example 2; 1 week after the implantation of HT29 cells, 5-FU was repeatedly intraperitoneally administered at 25 mg/kg once a day for 4 days; and at the final day (4th day) of 5-FU administration, 37 MBq (1 mCi) of ^64Cu-ATSM was administered through the tail vein. The administration of 5-FU was again started at the 25th day from the start of 5-FU administration, with 25 mg/kg thereof repeatedly administered once a day for 4 days. At the final day of 5-FU administration, 37 MBq (1 mCi) of ^64Cu-ATSM was then administered through the tail vein. […] The tumor size in mice was measured 2, 4, 8, 12, 14, 16, 20, 24, 27, 31, or 34 days after starting the administration of 5-FU.
# The experiment was carried out in the same way as Example 7 except for administering saline in place of ^64Cu-ATSM.
# The experiment was carried out in the same way as Example 7 except for administering saline in place of 5-FU.
# The volume of tumor was calculated from the size of tumor measured in Example 7 and Comparative Examples 6 and 7; the change thereof with time is shown in FIG. 5. In FIG. 5, the tumor volume at the day prior to the day of the first start of 5-FU administration was set to 100%, and the percentage based thereon was given. In FIG. 5, data are expressed in average and standard deviation for 6 mice.
# HT29 cells [6] = assay: Anti-tumor effect of 64Cu-ATSM and 6TG or PT in HT29 tumor-bearing mouse (tumor volume); format: in vivo, BALB/c nude mice; conditions: HT29 tumor-bearing mice; 6TG 12.5 mg/kg or PT 200 mg/kg i.p. once a day x4 days; 64Cu-ATSM 37 MBq via tail vein at final day (74 MBq alone in Comparative Example 3); to day 15; 6 mice
# Description: (§3) The HT29 tumor-bearing model was prepared in the same way as Example 2, and 1 week after the implantation of HT29 cells, 6TG was repeatedly intraperitoneally administered at 12.5 mg/kg once a day for 4 days. At the final day of 6TG administration, 37 MBq (1 mCi) of ^64Cu-ATSM was administered through the tail vein. […] The tumor size in mice was measured 2, 4, 8, 12, or 15 days after starting the administration of 6TG.
# The experiment was carried out in the same way as Example 5 except for administering saline in place of ^64Cu-ATSM.
# as §3, with “PT” for “6TG”, “200” for “12.5”, “PT.” for “6TG.”
# The experiment was carried out in the same way as Example 6 except for administering saline in place of ^64Cu-ATSM.
# The volume of tumor was calculated from the size of tumor measured in Examples 5 and 6 and Comparative Examples 4 and 5; the change thereof with time is shown in FIG. 4. In FIG. 4, the tumor volume at the day prior to the day of the start of 6TG or PT administration was set to 100%, and the percentage based thereon was given. In FIG. 4, data are expressed in average and standard deviation for 6 mice. In addition, the results of Example 2 and Comparative Examples 1 to 3 were shown together in FIG. 4.
# [7] = Study of dose of 6TG using nude mouse (rate of body weight reduction, death)
# Description: 6TG was repeatedly intraperitoneally administered to BALB/c nude mice (male, 7-week old, about 25 g in body weight, obtained from Japan SLC, Inc.) at 12.5 mg/kg, 25 mg/kg, or 50 mg/kg once a day for 4 days. Body weight was measured at the 5th day from the first starting day of administration and later to determine the rate of body weight reduction. The rate of body weight reduction was calculated based on the following equation.
# Body weight reduction rate(%)=[{(Body weight at day prior to the date of first 6TG administration)−(Body weight measured after start of 6TG administration)}/(Body weight at day prior to the date of first 6TG administration)]×100
# Saline was administered to a control group in place of 6TG. In Table 2, they were expressed in average and standard deviation for 4 mice.
# [8] = Study of dose of PT using nude mouse (rate of body weight reduction); format: in vivo, BALB/c nude mice; conditions: for Rate of Body Weight Reduction (%): average ± SD, 4 mice
# Description: PT was repeatedly intraperitoneally administered to BALE/c nude mice (male, 7-week old, about 25 g in body weight, obtained from Japan SLC, Inc.) at 25, 50, 100, or 200 mg/kg once a day for 4 days. Body weight was measured at the 5th day from the first starting day of administration and later to determine the rate of body weight reduction. The rate of body weight reduction was calculated based on the following equation.
# Body weight reduction rate(%)=[{(Body weight at day prior to the date of first PT administration)−(Body weight measured after start of PT administration)}/(Body weight at day prior to the date of first PT administration)]×100
# Saline was administered to a control group in place of PT. In Table 3, they were expressed in average and standard deviation for 4 mice.
# CD133-positive cells = conditions: Yoshii et al. (2010), Nucl. Med. Biol. 37, 395-404; cited from earlier work
# [9] = test system: CD133-positive cells in tumor; conditions: Yoshii et al. (2011), Nucl. Med. Biol. 38, 151-157; cited from earlier work
# tumor = conditions: compared with 18FDG; Japanese Patent Laid-Open No. 2010-13380; cited from earlier work
compound,measurement,setting,value
"O=c1[nH]cc(F)c(=O)[nH]1 [5-FU, 5-Fluorouracil]",death of mice,[1]; 5-FU 50 mg/kg i.p. once a day for 4 days,died at the 10th or 11th day from administration
same,death of mice,[1]; 5-FU 100 mg/kg i.p. once a day for 4 days,died at the 7th or 8th day from administration
same,"tumor volume, change with time (FIG. 1; % of volume at day prior to start of 5-FU administration)",[2],did not suppress the proliferation of tumor
same,percentage of apoptotic cells in tumor (FIG. 2),[3],apoptosis of tumor cells was confirmed
same,percentage of CD133+ cells in tumor (FIG. 3),[4],can kill CD133+cells
same,"tumor volume, change with time (FIG. 5; % of volume at day prior to first start of 5-FU administration)",HT29 cells [5],could hardly suppress the proliferation of tumor
"Nc1nc2nc[nH]c2c(=S)[nH]1 [6TG, 6-Thioguanine]","tumor volume, change with time (FIG. 4; % of volume at day prior to start of 6TG or PT administration)",HT29 cells [6],could not suppress the proliferation of tumor
same,death of mice,[7]; 6TG 25 mg/kg i.p. once a day for 4 days,died at the 13th to 15th day from administration
same,death of mice,[7]; 6TG 50 mg/kg i.p. once a day for 4 days,died at the 6th to 8th day from administration
"Nc1nc2[nH]cc(CCc3ccc(C(=O)N[C@@H](CCC(=O)O)C(=O)O)cc3)c2c(=O)[nH]1 [PT, Pemetrexed]",Rate of Body Weight Reduction (%),"[8]; PT 25 mg/kg/day i.p. once a day for 4 days, 5th Day",−8.42 ± 12.36%
same,Rate of Body Weight Reduction (%),"[8]; PT 25 mg/kg/day i.p. x4 days, 9th Day",−12.11 ± 13.3%
same,Rate of Body Weight Reduction (%),"[8]; PT 25 mg/kg/day i.p. x4 days, 12th Day",−10.94 ± 12.04%
same,Rate of Body Weight Reduction (%),"[8]; PT 25 mg/kg/day i.p. x4 days, 16th Day",−14.11 ± 11.25%
same,Rate of Body Weight Reduction (%),"[8]; PT 25 mg/kg/day i.p. x4 days, 18th Day",−15.38 ± 9.65%
same,Rate of Body Weight Reduction (%),"[8]; PT 50 mg/kg/day i.p. x4 days, 5th Day",−3.94 ± 7.7%
same,Rate of Body Weight Reduction (%),"[8]; PT 50 mg/kg/day i.p. x4 days, 9th Day",−12.12 ± 5.33%
same,Rate of Body Weight Reduction (%),"[8]; PT 50 mg/kg/day i.p. x4 days, 12th Day",−12.91 ± 7.21%
same,Rate of Body Weight Reduction (%),"[8]; PT 50 mg/kg/day i.p. x4 days, 16th Day",−16.03 ± 8.57%
same,Rate of Body Weight Reduction (%),"[8]; PT 50 mg/kg/day i.p. x4 days, 18th Day",−15.41 ± 11.86%
same,Rate of Body Weight Reduction (%),"[8]; PT 100 mg/kg/day i.p. x4 days, 5th Day",−5.03 ± 8.95%
same,Rate of Body Weight Reduction (%),"[8]; PT 100 mg/kg/day i.p. x4 days, 9th Day",−12.82 ± 9.29%
same,Rate of Body Weight Reduction (%),"[8]; PT 100 mg/kg/day i.p. x4 days, 12th Day",−16.86 ± 8.46%
same,Rate of Body Weight Reduction (%),"[8]; PT 100 mg/kg/day i.p. x4 days, 16th Day",−20.08 ± 9.11%
same,Rate of Body Weight Reduction (%),"[8]; PT 100 mg/kg/day i.p. x4 days, 18th Day",−21.05 ± 6.18%
same,Rate of Body Weight Reduction (%),"[8]; PT 200 mg/kg/day i.p. x4 days, 5th Day",−5.75 ± 9.93%
same,Rate of Body Weight Reduction (%),"[8]; PT 200 mg/kg/day i.p. x4 days, 9th Day",−15.25 ± 10.49%
same,Rate of Body Weight Reduction (%),"[8]; PT 200 mg/kg/day i.p. x4 days, 12th Day",−18.1 ± 9.64%
same,Rate of Body Weight Reduction (%),"[8]; PT 200 mg/kg/day i.p. x4 days, 16th Day",−18.1 ± 9.64%
same,Rate of Body Weight Reduction (%),"[8]; PT 200 mg/kg/day i.p. x4 days, 18th Day",−17.19 ± 9.86%
same,rate of body weight reduction,"[8]; PT, all groups (25, 50, 100, 200 mg/kg once a day for 4 days), even at the 18th day",≤ 10%
same,"tumor volume, change with time (FIG. 4; % of volume at day prior to start of 6TG or PT administration)",HT29 cells [6],could not suppress the proliferation of tumor
diacetyl-bis(N4-methylthiosemicarbazone) copper complex [^64Cu-ATSM],"tumor volume, change with time (FIG. 1; % of volume at day prior to start of 5-FU administration)",[2],suppressed the proliferation of tumor depending on the dose thereof
same,percentage of apoptotic cells in tumor (FIG. 2),[3],apoptosis of tumor cells was confirmed
same,percentage of CD133+ cells in tumor (FIG. 3),[4],can kill CD133+cells
same,"tumor volume, change with time (FIG. 4; % of volume at day prior to start of 6TG or PT administration)",HT29 cells [6],could suppress the proliferation of tumor depending on the dose thereof
same,"tumor volume, change with time (FIG. 5; % of volume at day prior to first start of 5-FU administration)",HT29 cells [5],suppressed the proliferation of tumor depending on the dose thereof
same,accumulation in CD133-positive cells,CD133-positive cells,accumulates in CD133-positive cells
same,amount of CD133-positive cells in tumor and tumor size,[9],decreased the amount of CD133-positive cells in tumor to shrink the tumor
same,sites of accumulation in tumor,tumor,accumulate in sites different from those for ^18FDG in tumor
